Experimental data published in BigSolDB 2.1.

c1cnc2[nH]ccc2c1
solubility (mole fraction)
Conditions | 278.15 K | 283.15 K | 288.15 K | 293.15 K | 298.15 K | 303.15 K | 308.15 K | 313.15 K | 318.15 K | 323.15 K
in THF | 0.343 | 0.361 | 0.377 | 0.397 | 0.419 | 0.436 | 0.458 | 0.479 | 0.5 | 0.523
in acetone | 0.262 | 0.282 | 0.301 | 0.322 | 0.341 | 0.361 | 0.383 | 0.402 | 0.423 | 0.443
in acetonitrile | 0.11 | 0.116 | 0.124 | 0.134 | 0.145 | 0.159 | 0.174 | 0.193 | 0.214 | 0.242
in ethanol | 0.152 | 0.172 | 0.191 | 0.211 | 0.232 | 0.252 | 0.275 | 0.299 | 0.326 | 0.356
in ethyl acetate | 0.21 | 0.217 | 0.226 | 0.237 | 0.251 | 0.265 | 0.283 | 0.302 | 0.324 | 0.346
in isopropanol | 0.204 | 0.217 | 0.231 | 0.247 | 0.262 | 0.279 | 0.298 | 0.315 | 0.336 | 0.36
in methanol | 0.228 | 0.238 | 0.25 | 0.262 | 0.277 | 0.293 | 0.31 | 0.33 | 0.351 | 0.372
in n-hexane | 0.0192 | 0.0201 | 0.0215 | 0.0234 | 0.0256 | 0.0279 | 0.0307 | 0.0337 | 0.0376 | 0.0425
in n-propanol | 0.19 | 0.202 | 0.215 | 0.233 | 0.253 | 0.272 | 0.291 | 0.312 | 0.333 | 0.359
